Laboratory results: US10736317B2, “Composition having sex pheromone activity on San Jose scale, and attractant, mating disruptant, attraction method and mating disruption method for San Jose scale” (SHIN-ETSU CHEMICAL CO., LTD., priority 2017, dated 2020)

Tested on: SJS male adult insects
Test: SJS attraction test (white adhesive trap, orchard)
Type: in vivo, Quadraspidiotus perniciosus (San Jose scale)
Settings: conclusion from trap captures
Source text: <Evaluation of Sex Pheromone Activity (SJS Attraction Test)> A white adhesive trap was used for evaluation of the sex pheromone activity. […] An adhesive material was applied over the bottom plate, and the attractant, which is shown as “A” in FIG. 1, was placed directly on the adhesive surface. In other words, it is configured to capture only insects that have approached the attractant, whereby keeping unintentional admission of insects as low as possible. In a period of from Jun. 30 to Oct. 2, 2015, the traps, each having one of the attractants, were placed in an orchard where SJS had inhabited. The number of male adult insects captured in each trap was measured for every 7 days. At every measurement, the installation places of the respective traps were changed by rotation of 13 places in total, in order to minimize the effects of installation environment on the number of capture.

C=C(C)CCCC(C)CCOC(=O)CC (stereo not shown) [3,7-dimethyl-7-octenyl propionate]
sex pheromone activity on the SJS: has a sex pheromone activity on the SJS
